In patent US9920010B2, “CXCR7 receptor modulators” (IDORSIA PHARMACEUTICALS LTD, priority 2013, dated 2018):

Molecular target: T1, CXCR7 (Homo sapiens, UniProt P25106)
T1 construct: host or cells: CHO-K1 (PathHunter CHO-K1 CXCR7 b-arrestin cell line, stably transfected)
Test: PathHunter CHO-K1 CXCR7 b-arrestin recruitment assay (CXCR7 agonistic activity)
Type: cell-based
Conditions: PathHunter CHO-K1 CXCR7 b-arrestin cell line
How it was run: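 Stable CHO-K1 line with C-terminally ProLink-tagged CXCR7 and β-arrestin 2–EA fusion; β-arrestin recruitment restores β-gal activity, read by chemiluminescence after 1 h RT detection. Cells seeded 24 h, starved in OPTIMEM 3–4 h, exposed to compounds 90 min at 37 °C in HBSS/HEPES/BSA. Geometric-mean EC50 from repeated measurements.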

T1 sequence (P25106 whole entry): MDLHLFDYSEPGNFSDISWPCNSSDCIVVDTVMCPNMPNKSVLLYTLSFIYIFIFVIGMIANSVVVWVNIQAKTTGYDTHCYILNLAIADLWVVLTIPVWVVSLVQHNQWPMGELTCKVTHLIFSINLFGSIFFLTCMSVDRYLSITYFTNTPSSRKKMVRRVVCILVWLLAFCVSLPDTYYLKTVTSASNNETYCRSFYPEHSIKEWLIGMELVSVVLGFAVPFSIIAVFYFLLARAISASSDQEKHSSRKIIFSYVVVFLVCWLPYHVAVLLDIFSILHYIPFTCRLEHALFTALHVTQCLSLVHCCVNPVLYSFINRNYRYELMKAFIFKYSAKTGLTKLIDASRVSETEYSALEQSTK
T1 sequence (P32121 whole entry partner): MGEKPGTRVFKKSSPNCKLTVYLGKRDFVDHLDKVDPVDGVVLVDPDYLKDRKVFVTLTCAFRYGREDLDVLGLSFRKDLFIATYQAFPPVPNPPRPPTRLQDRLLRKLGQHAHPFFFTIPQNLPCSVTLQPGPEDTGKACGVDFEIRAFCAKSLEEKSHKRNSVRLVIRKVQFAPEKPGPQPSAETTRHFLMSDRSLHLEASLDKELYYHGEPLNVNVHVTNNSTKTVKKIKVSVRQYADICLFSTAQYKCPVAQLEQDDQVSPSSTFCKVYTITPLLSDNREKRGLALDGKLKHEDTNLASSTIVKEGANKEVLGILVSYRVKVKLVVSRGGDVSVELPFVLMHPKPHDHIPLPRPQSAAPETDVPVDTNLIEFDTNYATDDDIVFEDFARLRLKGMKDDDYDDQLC

**Q.** Which EC50 does the source give for `C=CCN1CCc2cccc(NCC(=O)N(CCN(C)CCF)Cc3ccccc3C(F)(F)F)c2C1` [compound 465, 2-(2-Allyl-1,2,3,4-tetrahydro-isoquinolin-8-ylamino)-N-{2-[(2-fluoro-ethyl)-methyl-amino]-ethyl}-N-(2-trifluoromethyl-benzyl)-acetamide] here?
**A.** 39 nM

**Q.** With `C=CCN1CCc2cccc(NCC(=O)N(CCN(C)C)Cc3ccccc3C(F)(F)F)c2C1` [compound 466, 2-(2-Allyl-1,2,3,4-tetrahydro-isoquinolin-8-ylamino)-N-(2-dimethylamino-ethyl)-N-(2-trifluoromethyl-benzyl)-acetamide] as the compound, how does the EC50 read?
**A.** 13 nM

**Q.** With `C=CCN(C)CCN(Cc1ccccc1C(F)(F)F)C(=O)CCc1cccc2c1CN(CC=C)CC2` [compound 467, N-[2-(Allyl-methyl-amino)-ethyl]-3-(2-allyl-1,2,3,4-tetrahydro-isoquinolin-8-yl)-N-(2-trifluoromethyl-benzyl)-propionamide] as the compound, how does the EC50 read?
**A.** 14 nM

**Q.** For `C=CCN1CCc2cccc(CCC(=O)N(CCN(C)C)Cc3ccccc3C(F)(F)F)c2C1` [compound 468, 3-(2-Allyl-1,2,3,4-tetrahydro-isoquinolin-8-yl)-N-(2-dimethylamino-ethyl)-N-(2-trifluoromethyl-benzyl)-propionamide], which EC50 is on record?
**A.** 10 nM

**Q.** With `CN(C)CCN(Cc1cccc(OC(F)(F)F)c1)C(=O)CNc1cccc2c1CN(CC1CC1)CC2` [compound 471, 2-(2-Cyclopropylmethyl-1,2,3,4-tetrahydro-isoquinolin-8-ylamino)-N-(2-dimethylamino-ethyl)-N-(3-trifluoromethoxy-benzyl)-acetamide] as the compound, how does the EC50 read?
**A.** 21 nM

**Q.** With `CN(C)CCN(Cc1ccccc1OC(F)(F)F)C(=O)CNc1cccc2c1CN(CC1CC1)CC2` [compound 472, 2-(2-Cyclopropylmethyl-1,2,3,4-tetrahydro-isoquinolin-8-ylamino)-N-(2-dimethylamino-ethyl)-N-(2-trifluoromethoxy-benzyl)-acetamide] as the compound, how does the EC50 read?
**A.** 21 nM

**Q.** For `CN(C)CCN(Cc1ccc(OC(F)(F)F)cc1)C(=O)CNc1cccc2c1CN(CC1CC1)CC2` [compound 473], which EC50 is on record?
**A.** 102 nM

**Q.** Which EC50 does the source give for `O=C(CNc1cccc2c1CN(CC1CC1)CC2)N(CCN1CCC(F)(F)CC1)Cc1ccccc1C(F)(F)F` [compound 474, 2-(2-Cyclopropylmethyl-1,2,3,4-tetrahydro-isoquinolin-8-ylamino)-N-[2-(4,4-difluoro-piperidin-1-yl)-ethyl]-N-(2-trifluoromethyl-benzyl)-acetamide] here?
**A.** 47 nM

**Q.** Which EC50 does the source give for `CN(C)CCN(Cc1ccccc1C(F)(F)F)C(=O)CNc1cccc2c1CN(CC1CC1)CC2` [compound 475] here?
**A.** 121 nM

**Q.** With `O=C(CNc1cccc2c1CN(CC1CC1)CC2)N(CCN1CCC(F)(F)CC1)Cc1ncccc1C(F)(F)F` [compound 476] as the compound, how does the EC50 read?
**A.** 15 nM

**Q.** For `CN(CCN(Cc1ncccc1C(F)(F)F)C(=O)CNc1cccc2c1CN(CC1CC1)CC2)CC(F)(F)F` [compound 477], which EC50 is on record?
**A.** 63 nM

**Q.** How did the EC50 turn out when `O=C(CNc1cccc2c1CN(CC1CC1)CC2)N(CCN1CCCC(F)(F)C1)Cc1ccccc1C(F)(F)F` [compound 478] was run?
**A.** 92 nM

**Q.** How did the EC50 turn out when `O=C(CNc1cccc2c1CN(CC1CC1)CC2)N(CCN1CCC(F)(F)C1)Cc1ccccc1C(F)(F)F` [compound 479] was run?
**A.** 78 nM

**Q.** Which EC50 does the source give for `O=C(CNc1cccc2c1CN(CC1CC1)CC2)N(CCN1CCCC(F)(F)C1)Cc1ncccc1C(F)(F)F` [compound 480, 2-(2-Cyclopropylmethyl-1,2,3,4-tetrahydro-isoquinolin-8-ylamino)-N-[2-(3,3-difluoro-piperidin-1-yl)-ethyl]-N-(3-trifluoromethyl-pyridin-2-ylmethyl)-acetamide] here?
**A.** 28 nM

**Q.** With `O=C(CNc1cccc2c1CN(CC1CC1)CC2)N(CCN1CCC(F)(F)C1)Cc1ncccc1C(F)(F)F` [compound 481, 2-(2-Cyclopropylmethyl-1,2,3,4-tetrahydro-isoquinolin-8-ylamino)-N-[2-(3,3-difluoro-pyrrolidin-1-yl)-ethyl]-N-(3-trifluoromethyl-pyridin-2-ylmethyl)-acetamide] as the compound, how does the EC50 read?
**A.** 41 nM

**Q.** Which EC50 does the source give for `O=C(CNc1cccc2c1CN(CC1CC1)CC2)N(CC(=O)N1CC(F)(F)C1)Cc1ccccc1C(F)(F)F` [compound 482, 2-(2-Cyclopropylmethyl-1,2,3,4-tetrahydro-isoquinolin-8-ylamino)-N-[2-(3,3-difluoro-azetidin-1-yl)-2-oxo-ethyl]-N-(2-trifluoromethyl-benzyl)-acetamide] here?
**A.** 32 nM

**Q.** For `O=C(CNc1cccc2c1CN(CC1CC1)CC2)N(CC(=O)N1CC(F)(F)C1)Cc1ncccc1C(F)(F)F` [compound 483, 2-(2-Cyclopropylmethyl-1,2,3,4-tetrahydro-isoquinolin-8-ylamino)-N-[2-(3,3-difluoro-azetidin-1-yl)-2-oxo-ethyl]-N-(3-trifluoromethyl-pyridin-2-ylmethyl)-acetamide], which EC50 is on record?
**A.** 33 nM

**Q.** With `O=C(CNc1cccc2c1CN(CC1CC1)CC2)N(CCN1CC(F)(F)C1)Cc1ccccc1C(F)(F)F` [compound 484] as the compound, how does the EC50 read?
**A.** 79 nM

**Q.** `CN(C)CCN(Cc1ncccc1Cl)C(=O)CNc1cccc2c1CN(CC1CC1)CC2` [compound 485, N-(3-Chloro-pyridin-2-ylmethyl)-2-(2-cyclopropylmethyl-1,2,3,4-tetrahydro-isoquinolin-8-ylamino)-N-(2-dimethylamino-ethyl)-acetamide] was tested. Which EC50 did it give?
**A.** 8 nM

**Q.** With `CN(C)CCN(Cc1ncccc1Br)C(=O)CNc1cccc2c1CN(CC1CC1)CC2` [compound 486, N-(3-Bromo-pyridin-2-ylmethyl)-2-(2-cyclopropylmethyl-1,2,3,4-tetrahydro-isoquinolin-8-ylamino)-N-(2-dimethylamino-ethyl)-acetamide] as the compound, how does the EC50 read?
**A.** 5 nM

**Q.** For `CC(C)(O)CN(Cc1ncccc1Cl)C(=O)CNc1cccc2c1CN(CC1CC1)CC2` [compound 487], which EC50 is on record?
**A.** 100 nM

**Q.** `CC(C)(O)CN(Cc1ncccc1Br)C(=O)CNc1cccc2c1CN(CC1CC1)CC2` [compound 488] was tested. Which EC50 did it give?
**A.** 91 nM

**Q.** With `CCN1CCc2cccc(NCC(=O)N(CCN3CCCC3)Cc3ccccc3C(F)(F)F)c2C1` [compound 489, 2-(2-Ethyl-1,2,3,4-tetrahydro-isoquinolin-8-ylamino)-N-(2-pyrrolidin-1-yl-ethyl)-N-(2-trifluoromethyl-benzyl)-acetamide] as the compound, how does the EC50 read?
**A.** 7 nM

**Q.** `CCN(CC)CCN(Cc1ccccc1)C(=O)CNc1cccc2c1CN(CC)CC2` [compound 490, N-Benzyl-N-(2-diethylamino-ethyl)-2-(2-ethyl-1,2,3,4-tetrahydro-isoquinolin-8-ylamino)-acetamide] was tested. Which EC50 did it give?
**A.** 21 nM

**Q.** With `CCN1CCc2cccc(NCC(=O)N(CCN(C)C)Cc3ccccc3F)c2C1` [compound 491, N-(2-Dimethylamino-ethyl)-2-(2-ethyl-1,2,3,4-tetrahydro-isoquinolin-8-ylamino)-N-(2-fluoro-benzyl)-acetamide] as the compound, how does the EC50 read?
**A.** 21 nM

**Q.** With `CCN1CCc2cccc(NCC(=O)N(Cc3ccccc3C(F)(F)F)C3CCN(C)CC3)c2C1` [compound 492, 2-(2-Ethyl-1,2,3,4-tetrahydro-isoquinolin-8-ylamino)-N-(1-methyl-piperidin-4-yl)-N-(2-trifluoromethyl-benzyl)-acetamide] as the compound, how does the EC50 read?
**A.** 41 nM

**Q.** With `CCN1CCc2cccc(NCC(=O)N(CCN(C)C(=O)OC(C)(C)C)Cc3ccccc3)c2C1` [compound 493] as the compound, how does the EC50 read?
**A.** 249 nM

**Q.** How did the EC50 turn out when `CCN1CCc2cccc(NCC(=O)N(CCN(C)C)Cc3ccccc3C)c2C1` [compound 494, N-(2-Dimethylamino-ethyl)-2-(2-ethyl-1,2,3,4-tetrahydro-isoquinolin-8-ylamino)-N-(2-methyl-benzyl)-acetamide] was run?
**A.** 28 nM

**Q.** For `CCN1CCc2cccc(NCC(=O)N(CCN(C)C)Cc3cccc(C)c3)c2C1` [compound 495], which EC50 is on record?
**A.** 63 nM
